Measurements: US7169818B2, “Lysophosphatidic acid receptor agonists and antagonists” (University of Virginia Patent Foundation, priority 2000, dated 2007)
“Also recorded” adds a separate entry of the source.

What was measured:
[1] = target: T1, mouse LPA1 (Mus musculus, UniProt P61793); parameters: expressed in transfected cells; host or cells: HEK293T (transient); for part of the results RH7777 membranes; conditions: previously reported; cited from earlier work
[2] = tested on: Xenopus laevis ooctyes; conditions: previously reported; cited from earlier work
[3] = target: T2, human LPA2 (Homo sapiens, UniProt Q9HBW0); parameters: expressed in transfected cells; host or cells: HEK293T (transient); conditions: previously reported; cited from earlier work
T2 sequence (Q9HBW0 whole entry): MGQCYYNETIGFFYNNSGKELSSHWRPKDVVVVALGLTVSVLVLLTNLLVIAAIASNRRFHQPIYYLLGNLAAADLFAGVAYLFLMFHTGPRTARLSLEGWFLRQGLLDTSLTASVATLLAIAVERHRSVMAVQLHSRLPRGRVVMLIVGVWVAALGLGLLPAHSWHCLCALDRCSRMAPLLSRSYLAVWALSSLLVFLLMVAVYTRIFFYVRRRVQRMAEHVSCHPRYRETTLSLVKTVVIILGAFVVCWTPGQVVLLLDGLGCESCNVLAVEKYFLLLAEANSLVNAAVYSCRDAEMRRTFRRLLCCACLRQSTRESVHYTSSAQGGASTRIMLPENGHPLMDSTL

[4] = target: T3, human LPA3 (Homo sapiens, UniProt Q9UBY5); parameters: expressed in transfected cells; host or cells: HEK293T (transient); conditions: previously reported; cited from earlier work
T3 sequence (Q9UBY5 1-353): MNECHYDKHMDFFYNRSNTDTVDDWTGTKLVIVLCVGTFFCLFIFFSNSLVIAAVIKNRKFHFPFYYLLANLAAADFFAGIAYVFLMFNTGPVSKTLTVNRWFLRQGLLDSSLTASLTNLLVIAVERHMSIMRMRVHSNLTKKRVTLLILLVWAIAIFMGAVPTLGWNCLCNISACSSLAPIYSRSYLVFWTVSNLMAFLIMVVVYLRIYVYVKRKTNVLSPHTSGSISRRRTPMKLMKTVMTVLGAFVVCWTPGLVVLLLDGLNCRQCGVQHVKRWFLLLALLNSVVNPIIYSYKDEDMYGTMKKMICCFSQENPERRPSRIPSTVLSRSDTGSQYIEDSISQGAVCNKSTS

[5] = tested on: human platelets; conditions: previously reported; cited from earlier work
[6] = target: T1, mouse LPA1; test: GTP[γ35S] binding, LPA1-transfected HEK293T (or RH7777) cell membranes; type: biochemical; parameters: expressed in transfected cells; host or cells: HEK293T (transient); for part of the results RH7777 membranes; conditions: GTP[γ35S] binding
Description: The appropriate receptor plasmid DNA (encoding mouse LPA1, human LPA2 or human LPA3) was mixed with equal amounts of expression plasmids (pcDNA3) encoding a mutated (C351F) rat Gi2a, cow β1, and γ2 proteins and these DNAs were used to transfect monolayers of HEK293T cells (where ‘T’ indicates expression of the SV-40 virus large T antigen) using the calcium phosphate precipitate method. After about 60 hours, cells were harvested, membranes were prepared, aliquoted and stored at −70° C. until use.
The GTP[35 γS] assay was performed as described by us previously. Membranes containing 5 ug of protein were incubated in 0.1 ml GTP-binding buffer (in mM: HEPES 50, NaCl 100, MgCl2 10, pH7.5) containing […], […], 0.1 nM GTP[35 γS] (1200 Ci/mmol), and indicated lipid(s) for 30 minutes at 30° C. Samples were analyzed for membrane-bound radionuclide using a Brandel Cell Harvester (Gaithersburg, Md.).
The X-intercept of the linear transformation is equal to the inverse log of the KI.
Membranes prepared from these cells are used to measure GTPγ[^35S] binding as a function of test compound concentration. The resulting dose-response curves provide relative potency (EC50) and efficacy (Emax) for the test compounds.

[7] = target: T1, mouse LPA1; test: cAMP accumulation in RH7777 cells stably expressing LPA1; type: cell-based; parameters: expressed in transfected cells; conditions: concentration of 1 μM
Description: Assays for cAMP accumulation were conducted on populations of 5×10^5 cells stimulated with […] in the presence of the phosphodiesterase inhibitor isomethylbutylxanthine (IBMX) for 15 minutes at 30° C. cAMP was measured by automated radioimmunoassay.
Rat hepatoma RH7777 cell monolayers were transfected with the mLPAI plasmid DNA using the calcium phosphate precipitate method and clonal populations expressing the neomycin phosphotransferase gene were selected by addition of geneticin (G418) to the culture media. The RH7777 cells were grown in monolayers at 37° C. in a 5% CO02/95% air atmosphere in growth media consisting of: 90% MEM, 10% fetal bovine serum, 2 mM glutamine and 1 mM sodium pyruvate.
(§1) wls-b8L and the other phosphonates were also tested also for activity in three whole cell assays. […] Finally, the activity of wls-b8L in activating a chloride conductance in Xenopus laevis ooctyes was measured.

[8] = target: T2, human LPA2; test: chloride conductance in Xenopus oocytes injected with human LPA2 mRNA; type: cell-based; parameters: expressed in transfected cells; host or cells: Xenopus laevis oocytes, mRNA injection; conditions: 10 μM applied to the oocyte surface
Description: as §1

[9] = target: T3, human LPA3; test: chloride conductance in Xenopus oocytes injected with human LPA3 mRNA; type: cell-based; parameters: expressed in transfected cells; host or cells: Xenopus laevis oocytes, mRNA injection; conditions: 10 μM applied to the oocyte surface
Description: as §1

[10] = tested on: Xenopus laevis ooctyes; test: chloride conductance / depolarization in Xenopus oocytes, endogenous receptor; type: cell-based; conditions: uninjected Xenopus oocytes
Description: as §1

[11] = tested on: human platelets; test: platelet aggregation; type: cell-based; conditions: concentrations up to 10 micromolar

T1 sequence (P61793 whole entry): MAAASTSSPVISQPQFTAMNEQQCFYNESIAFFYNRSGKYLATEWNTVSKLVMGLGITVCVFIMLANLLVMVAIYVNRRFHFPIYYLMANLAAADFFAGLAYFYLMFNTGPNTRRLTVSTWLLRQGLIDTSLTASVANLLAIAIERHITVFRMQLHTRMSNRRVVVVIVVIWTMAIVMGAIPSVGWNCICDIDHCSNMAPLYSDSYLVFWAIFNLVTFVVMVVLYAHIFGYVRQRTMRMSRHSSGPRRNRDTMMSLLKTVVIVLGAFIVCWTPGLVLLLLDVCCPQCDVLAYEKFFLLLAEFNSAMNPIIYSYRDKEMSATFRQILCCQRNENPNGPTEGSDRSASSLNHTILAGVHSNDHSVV

CCCCCCCC/C=C\CCCCCCCC(=O)NCCOP(=O)(O)O [NAEPA, N-oleoyl ethanolamide phosphoric acid]
GTP[γ35S] binding at LPA1 containing membranes relative to LPA (literature) [1]: nearly indistinguishable from LPA | oocyte depolarization (literature) [2]: distinctly less active than LPA | GTP[γ35S] binding at LPA2 containing membranes relative to LPA (literature) [3]: nearly indistinguishable from LPA | activity at recombinant LPA3 relative to LPA (literature) [4]: distinctly less active than LPA | platelet aggregation (literature) [5]: nearly indistinguishable from LPA

CCCCCCCC/C=C\CCCCCCCC(=O)NCCCP(=O)(O)O [wls-b8L, (9Z)-N-(3-phosphonopropyl)Octadec-9-enamide]
receptor-type selectivity of agonist activity (LPA1 vs LPA2, LPA3) [6]: more potent and efficacious at LPA1 than at either LPA2 or LPA3; also recorded: distinctly more selective regarding its agonist activity at a single LPA receptor (LPA1) | inhibition of cAMP accumulation (agonist efficacy) [7]: fully efficacious | activation of chloride conductance, human LPA2 mRNA injected [8]: very modest response | activation of chloride conductance, human LPA3 mRNA injected [9]: very modest response | activation of chloride conductance, endogenous receptor [10]: does not evoke this response | aggregation of human platelets [11]: does not elicit aggregation
